Measurements taken from patent US20190269666A1, “COMBINATION THERAPY WITH MERESTINIB AND ANTI-PD-L1 OR ANTI-PD-1 INHIBITORS FOR USE IN THE TREATMENT OF CANCER” (Eli Lilly and Company, priority 2016, published 2019).

Columns and labels:
[1] = test system: CT26 colorectal cancer model; experiment: Study S082015: single agent merestinib in CT26 syngeneic mouse tumor model; type: in vivo; conditions: for Body weight change from baseline (%) / T/C %: Day 26
Method: A syngeneic mouse tumor model is used to evaluate potential combination effect of merestinib and anti-PD-L1 antibody is the CT26 colorectal cancer model using the mouse colorectal cancer line CT26. This experiment is conducted in immune competent mice (Grosso and Jure-Kunkel, Cancer Immunity Vol. 13, p. 5, January 2013; Duraiswamy et al, Cancer Research, Jun. 15, 2013 73; 3591.). Anti-PD-L1 antibody surrogate (178G7, LSN3370181) (Eppihimer et al. Microcirculation 2002:9(2):133) is used in the mouse study.
Female BALB/c mice (18-20 gm) from Envigo (Harlan Laboratories) are used for this study. Food and water are available ad libitum. Animals are acclimated for one week prior to any experimental manipulation. The study is performed in accordance with AALAC accredited institutional guidelines.
Merestinib is formulated as a solution in 10% PEG 400 in 90% (20% Captisol in water) once weekly. Anti-PD-L1 antibody (178G7, LSN3370181) is formulated in PBS (phosphate buffered saline).
CT26 cells (from internal in vivo pharmacology cell culture group lot CT26.WT.3184878) are used for implantation. Approximately 1×10^6 cells in HBSS are implanted subcutaneously into the right hind flank of the animal under anesthesia.
Study S082015 has four groups: 1) vehicle control (10% PEG 400 in 90% [20% Captisol in water]) dosed orally once daily for 21 days; 2) single agent merestinib at 6 mg/kg once daily orally for 21 days; 3) single agent merestinib at 12 mg/kg once daily orally for 21 days; 4) single agent merestinib at 24 mg/kg once daily orally for 21 days. Dosing of merestinib is initiated at Day 6 post-implant of the CT26 cells. There are 15 animals per group. Five animals per group are taken down on Day 13 and on Day 20 post-implant of CT26 cells for the harvesting of spleens and tumors for the interrogation of the effect of merestinib on immune functions. Five animals per group remain to the end of the study (Day 26). Tumor volumes and body weight are measured bi-weekly. Tumor volume is estimated by using the formula: v=l×w2×0.536 where l=larger of measured diameter and w=smaller of perpendicular diameter. At the end of the study, animals are sacrificed using CO2 and cervical dislocation.
Tumor volume is transformed to the log scale to equalize variance across time and treatment groups. The log volume data are analyzed with a two-way repeated measures analysis of variance by time and treatment using the MIXED procedures in SAS software (Version 9.3). The correlation model for the repeated measures is spatial power. Treated groups are compared to the control group at each time point. The MIXED procedure is also used separately for each treatment group to calculate least squares means and standard errors at each time point. Both analyses account for the autocorrelation within each animal and the loss of data that occurs when animals are removed or lost before Day 33.

[2] = test system: 80-murine immune gene panel (mRNA expression) in CT26 tumors; experiment: Immuno-landscape analysis, QuantiGene mu-80 immune gene panel on CT26 tumors; type: in vivo, mouse; conditions: for Log2 (difference to vehicle control): CT26 tumors, Day 20
Method: Frozen tumor fragments of the samples collected on study Day 20 from 5 animals from each treatment arm (study S010516) are analyzed for gene expression of 80 markers using the Quantigene murine-80 panel (mu-80 immune panel #21681). Total RNA was isolated from lysed samples using the MAGMAX™ 96 Total RNA isolation kit (Life Technologies). Snap-frozen tumor fragments are lysed by adding 500 μL, of prepared lysis/binding buffer (MAGMAX™ 96 Total RNA isolation kit) with a single stainless steel bead (5 mm) and then homogenized on a TissueLyser (Qiagen) for 2 minutes at 25 Hz. 200 μL of lysate, along with 120 μL of 100% isopropanol and 40 μL of prepared magnetic beads mix are then transferred to a 96 deep well processing plate. A series of washes and a DNase incubation step are processed on the MAGMAX™ Express-96 Deep Well Magnetic Particle Processor (Life Technologies). RNA is eluted from the magnetic beads with […] of elution buffer after a final wash step. RNA concentration is determined spectrophotometrically to determine optical density at 260 and 280 nm and is then diluted to the final concentration of 25 ng/μl. Tissue expression of immune related genes is then measured using a QuantiGene® 2.0 Plex assay (Affymetrix) with a custom probe set (mu-80 immune panel #21681, Table 6). Four house-keeping-genes (HKG: Gusb, Hprt1, Ppib, Rps18) are used to normalize the gene expression data. Data are normalized and curated using the Genepattern script v28.8. Statistics and bioinformatics are used to analyze the data.
Five hundred ng of total RNA from samples being analyzed is added in duplicate to individual wells of a 96-well hybridization plate containing QuantiGene® magnetic capture beads, QuantiGene® probeset #21681, and QuantiGene® blocking reagent for a final volume of 100 μL. The hybridization plate is then sealed and incubated at 54° C. while agitated at 600 rpm for 16 hours. Samples are then transferred to a 96-well assay plate and beads are then sequentially hybridized first with 100 μl of QuantiGene® Pre-Amplifier Probe, then with QuantiGene® Amplifier Probe, and finally with QuantiGene® Label Probe (1 hour at 50° C. for each step, with 2-3 washes between each step using a magnetic capture plate). Streptavidin-conjugated R-Phycoerythrin (SAPE, Affymetrix) is added after the last hybridization step and incubated for 30 minutes at room temperature with agitation at 600 rpm. Samples are then analyzed on the FLEXMAP 3D® Luminex instrument (Luminex Corp). Beads (mRNA target) are identified with a red laser while the level of RNA is determined by measuring the mean fluorescence intensity (MFI) of Phycoerythrin with a green laser. Raw MFI data are then converted into relative gene expression for each gene (Normalized Adjusted Net MFI, background subtracted and normalized to 4 housekeeping genes), using a quality control analysis script with GenePattern (Broad Institute). […] Next, the lower limit of detection (LLOD) is determined (average background MFI+3 standard deviation (SD)). […] Relative gene expression is then calculated by normalizing for each gene's adjusted net MFI to the geometric mean of the MFI of selected housekeeping genes (HKG) including Hprt1, Gusb, Rps18 and Ppib, as shown in Table 6: (Sample Adjusted Net MFI/geometric mean Adjusted Net HKG MFI) multiplied by a scaling factor of 100. […]

SMILES: Cc1ccc(C(=O)Nc2ccc(Oc3cc4cnn(C)c4cc3-c3cn[nH]c3)c(F)c2)c(=O)n1-c1ccc(F)cc1 [merestinib, N-(3-fluoro-4-(1-methyl-6-(1H-pyrazol-4-yl)-1H-indazol-5-yloxy)phenyl)-1-(4-fluorophenyl)-6-methyl-2-oxo-1,2-dihydropyridine-3-carboxamide]
- Body weight change from baseline (%) ([1]; 6 mg/kg once daily orally): 5.7%
- T/C % ([1]; 6 mg/kg once daily orally): 52.8%
- Body weight change from baseline (%) ([1]; 12 mg/kg once daily orally): 3.4%
- T/C % ([1]; 12 mg/kg once daily orally): 34.8%
- anti-tumor effect ([1]; 24 mg/kg dose): tumor stasis
- Body weight change from baseline (%) ([1]; 24 mg/kg once daily orally): 3.0%
- T/C % ([1]; 24 mg/kg once daily orally): 13.4%
- anti-tumor effect as compared to vehicle control ([1]; 6, 12, 24 mg/kg once daily orally): significant anti-tumor effect
- tolerability ([1]; all three doses (6, 12, 24 mg/kg), no significant loss in body weight): well tolerated
- Log2 (difference to vehicle control) ([2]; gene Cdh1): 1.01
- Log2 (difference to vehicle control) ([2]; gene Cdh1, listed as Merestinib alone): 1.0
- Log2 (difference to vehicle control) ([2]; gene Tnfrsf): 0.8
- number of immune genes with no significant change vs vehicle control ([2]; of an 80-immune gene panel): 79
- number of immune genes significantly different from vehicle control ([2]; of the 80 immune genes measured, tumors Day 20): 1
